How the values were obtained:
Type in all cases: cell-based
SCC-9 tumor cells [1] = experiment: CFSE-DA proliferation assay (flow cytometry); conditions: 24 h, IsCT-P and AC-AFPK-IsCT1 at IC50, other peptides at 100 µM, mean ± SD of three independent experiments
Description: (§1) Figure 2 Assessment of the cellular proliferative index was conducted using flow cytometry following a 24 h treatment with synthetic analogs of the IsCT1 peptide. The treatments were performed using the IC50 values obtained for the IsCT-P and AC-AFPK-IsCT1 peptides and at a concentration of 100 µM for the other peptides. (a) Representative histograms of the proliferative index were analyzed using WinMDI 5.0 software. Each color in the histogram represents a new cell population. (b) Bar graphs represent the mean ± SD of the proliferative index for SCC-9 tumor cells derived from three independent experiments. (c) Bar graphs display the mean ± SD of the proliferative index for SCC-25 tumor cells based on three independent experiments. (d) Bar graphs represent the mean ± SD of the proliferative index for normal FN1 cells from three independent experiments. (e) Bar graphs illustrate the mean ± SD of the proliferative index for normal J774 cells from three independent experiments. Statistical differences were determined using ANOVA and Tukey–Kramer multiple comparison tests. Significance levels are indicated as * p < 0.05, ** p < 0.01, and *** p < 0.001, with ‘ns’ denoting not significant.
(§2) Tumor (SSC-9 and SSC-25) and normal cells (FN1 and J-774) were plated in 24-well plates at a density of 10^5 cells/mL for 24 h. The treated and control groups were incubated with the carboxyfluorescein marker (CFSE-DA Thermo Fisher (Waltham, MA, USA), KITC34571). CFSE-DA was diluted in PBS + 0.1% human albumin and added to the cell-containing medium. After 24 h of treatment, the cells were trypsinized, transferred to a conical tube, and centrifuged at 1500 rpm for 5 min. The supernatant was discarded and the pellet was resuspended in 1 mL of 4% paraformaldehyde in PBS for 30 min. The cells were then centrifuged, the supernatant was discarded, and the pellet was resuspended in 200 μL of FACS buffer. Readings were performed on a FACScanto flow cytometer (BD, Franklin Lakes, NJ, USA) with the number of events set to 10,000 events, and histograms were acquired and analyzed using ModFit LT 5.0 software.

SCC-25 tumor cells [2] = experiment: CFSE-DA proliferation assay (flow cytometry); conditions: 24 h, IsCT-P and AC-AFPK-IsCT1 at IC50, other peptides at 100 µM, mean ± SD of three independent experiments
Description: as §1, §2

SCC-25 tumor cells [3] = experiment: Cell cycle phase and DNA fragmentation analysis (flow cytometry); conditions: 24 h, IsCT-P and AC-AFPK-IsCT1 at IC50, others 100 µM
Description: Figure 3 Analysis of cell cycle phases following a 24 h treatment with synthetic analogs of IsCT1 peptides. The indicated cells were treated at the IC50 values obtained for the IsCT-P and AC-AFPK-IsCT1 peptides and at a concentration of 100 µM for the other peptides. (a) Representative histograms of cell distribution across cell cycle phases; (b) bar graph showing the correlation of the effect on cell cycle and fragmented DNA, expressed as the mean ± SD of three independent SCC-9 tumor cell experiments; (c) bar graph showing the correlation of the effect on cell cycle and fragmented DNA, expressed as the mean ± SD of three independent experiments on SCC-25 tumor cells; (d) bar graph showing the correlation of the effect on cell cycle and fragmented DNA, expressed as the mean ± SD of three independent experiments of normal FN1 cells; (e) bar graph showing the correlation of the effect on cell cycle and fragmented DNA, expressed as the mean ± SD of three independent experiments of normal J774 cells. Statistical differences were obtained using ANOVA and Tukey–Kramer multiple comparison tests. * p < 0.05, ** p < 0.01, and *** p < 0.001 denote significance. ns = not significant.
Tumor (SSC-9 and SSC-25) and normal cells (FN1 and J-774) were subjected to treatment for 24 h at the peptides’ IC50 concentrations. Treated and control cells were trypsinized and centrifuged at 1200 rpm for 5 min. The resulting pellet was resuspended in 1 mL of cold buffer, followed by the addition of 3 mL of absolute ethanol. Samples were stored at −20 °C for 24 h. The samples were then centrifuged at 1500 rpm for 10 min and resuspended in 200 μL of FACS buffer containing 0.1% Triton X-100 (Sigma-Aldrich, St. Louis, MO, USA), 50 μg/mL propidium iodide (Sigma-Aldrich), and 1 µL of RNAse (200×). This mixture was kept at room temperature and protected from light for 30 min. The samples were then transferred to cytometry tubes and analyzed using a FACScanto flow cytometer (BD) with 10,000 events, and histograms were acquired and analyzed using ModFit LT 5.0 software.

SCC-9 tumor cells [4] = experiment: Mitochondrial potential by confocal microscopy (MitoRed/DAPI); conditions: 24 h, IsCT-P and AC-AFPK-IsCT1 at IC50, others 100 µM, MitoRed, DAPI
Description: (§3) Figure 5 Photomicrographs of tongue squamous cell carcinoma tumor cells (SCC-9 and SCC-25) and macrophages (J774), with mitochondria stained red (MitoRED) and nuclei stained blue (DAPI), analyzed using confocal laser microscopy. The indicated cells were treated at the IC50 values obtained for the IsCT-P and AC-AFPK-IsCT1 peptides and at a concentration of 100 µM for the other peptides for a period of 24 h.
(§4) For the confocal microscopy ana.lysis, tumor and normal cells were cultured in 24-well plates containing round coverslips with RPMI and Leibovitz medium, respectively, supplemented with 10% FBS and incubated with 5% CO2 at 37 °C for 24 h. Samples from the control and treated groups were subjected to the process of removing the culture medium and washing with RPMI medium. A total of 200 nML^−1 of MitoRed (Sigma-Aldrich, USA) was then added and the cells were incubated for 1 h in the dark at 37 °C. After incubation, the cells were washed with PBS, incubated with MitoRed, and fixed with 4% paraformaldehyde for 30 min. The cells were then washed with PBS and incubated. A total of 10 µL of VECTASHIELD® antifade with DAPI (Vector Laboratories, Burlingame, CA, USA) was used on the slide to promote the sealing and marking of the nucleus. The slides were stored in a closed place until the day of reading. Coverslips were placed on slides for observation under a confocal laser fluorescence microscope (Fluoview™ 300) and images were documented and analyzed.

SCC-25 tumor cells [5] = experiment: as above; conditions: 24 h, IsCT-P and AC-AFPK-IsCT1 at IC50, others 100 µM, MitoRed, DAPI
Description: as §3, §4

Ac-ALGKFWPKIKSLF-NH2 [AC-AFPK-IsCT1]
reduction in the proliferative index (SCC-9 tumor cells [1]): 61.6 ± 1.7% | decrease in the proliferative index (SCC-25 tumor cells [2]): 40.9 ± 2.5% | fragmented DNA (SCC-25 tumor cells [3]): 16.5% | change in mitochondrial electric potential (confocal) (SCC-9 tumor cells [4]): promoted a reduction in the mitochondrial electric potential | change in mitochondrial electric potential (confocal) (SCC-25 tumor cells [5]): promoted a reduction in the mitochondrial electric potential

H-ILKKIWKPIKKLF-NH2 [IsCT-P]
reduction in the proliferative index (SCC-9 tumor cells [1]): 61.8 ± 8.7% | decrease in the proliferative index (SCC-25 tumor cells [2]): 61.1 ± 2.8% | fragmented DNA (SCC-25 tumor cells [3]): 32.4% | change in mitochondrial electric potential (confocal) (SCC-9 tumor cells [4]): promoted a reduction in the mitochondrial electric potential | change in mitochondrial electric potential (confocal) (SCC-25 tumor cells [5]): promoted a reduction in the mitochondrial electric potential

Reference: paper PMC11478212, “Antitumoral and Antiproliferative Potential of Synthetic Derivatives of Scorpion Peptide IsCT1 in an Oral Cavity Squamous Carcinoma Model” (Molecules, 2024)
